From the supplement of paper PMC10307832

Assays:
Assay in all cases: relative viability (nuclei count vs DMSO), 5 days (fraction); higher = more cells survive
IU1-47 + Vorinostat = compound: CC1=CC(=C(N1C2=CC=C(C=C2)Cl)C)C(=O)CN3CCCCC3 [IU1-47] + O=C(CCCCCCC(=O)Nc1ccccc1)NO [Vorinostat] (partner 1 µM)
In short: (§1)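 Values are medians from duplicate plates. Each reflects relative viability, defined as the nuclei count of treated wells over that of vehicle wells. Lung cancer cell lines in 1536-well plates were pin-tool dosed one day after seeding with one drug alone or with a fixed anchor-drug dose plus five library-drug doses (not always all listed) in √10 steps, then fixed, stained and imaged at 4× after 5 days.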

FG-4592 + Navitoclax = compound: Cc1nc(C(=O)NCC(=O)O)c(O)c2ccc(Oc3ccccc3)cc12 [FG-4592] + CC1(C)CCC(c2ccc(Cl)cc2)=C(CN2CCN(c3ccc(C(=O)NS(=O)(=O)c4ccc(N[C@H](CCN5CCOCC5)CSc5ccccc5)c(S(=O)(=O)C(F)(F)F)c4)cc3)CC2)C1 [Navitoclax] (partner 0.5 µM)
In short: as §1

IU1-47 + OSI-027 = compound: CC1=CC(=C(N1C2=CC=C(C=C2)Cl)C)C(=O)CN3CCCCC3 [IU1-47] + COc1cccc2cc(-c3nc([C@H]4CC[C@H](C(=O)O)CC4)n4ncnc(N)c34)[nH]c12 [OSI-027] (partner 0.5 µM)
In short: as §1

FG-4592 + Linsitinib = compound: Cc1nc(C(=O)NCC(=O)O)c(O)c2ccc(Oc3ccccc3)cc12 [FG-4592] + C[C@]1(O)C[C@@H](c2nc(-c3ccc4ccc(-c5ccccc5)nc4c3)c3c(N)nccn32)C1 [Linsitinib] (partner 1 µM)
In short: as §1

Row | Cell Line | relative viability (IU1-47 + Vorinostat; first compound 0.08 µM) | relative viability (IU1-47 + Vorinostat; first compound 0.253 µM) | relative viability (IU1-47 + Vorinostat; first compound 0.8 µM) | relative viability (IU1-47 + Vorinostat; first compound 2.53 µM) | relative viability (IU1-47 + Vorinostat; first compound 8 µM) | relative viability (FG-4592 + Navitoclax; first compound 0.08 µM) | relative viability (FG-4592 + Navitoclax; first compound 0.253 µM) | relative viability (FG-4592 + Navitoclax; first compound 0.8 µM) | relative viability (FG-4592 + Navitoclax; first compound 2.53 µM) | relative viability (FG-4592 + Navitoclax; first compound 8 µM) | relative viability (IU1-47 + OSI-027; first compound 0.08 µM) | relative viability (IU1-47 + OSI-027; first compound 0.253 µM) | relative viability (IU1-47 + OSI-027; first compound 0.8 µM) | relative viability (IU1-47 + OSI-027; first compound 2.53 µM) | relative viability (IU1-47 + OSI-027; first compound 8 µM) | relative viability (FG-4592 + Linsitinib; first compound 0.08 µM) | relative viability (FG-4592 + Linsitinib; first compound 0.253 µM) | relative viability (FG-4592 + Linsitinib; first compound 0.8 µM) | relative viability (FG-4592 + Linsitinib; first compound 2.53 µM) | relative viability (FG-4592 + Linsitinib; first compound 8 µM)
1 | PC-3 [JPC-3] | 0.857 | 1.04 | 0.772 | 0.691 | 0.972 | 0.778 | 0.823 | 0.829 | 0.875 | 0.859 | 0.796 | 0.874 | 0.716 | 0.705 | 0.555 | 0.965 | 0.974 | 0.969 | 1.04 | 1.01
2 | PC-14 | 0.757 | 0.756 | 0.734 | 0.49 | 0.573 | 1.01 | 1.06 | 1.08 | 1.01 | 1.03 | 0.881 | 0.925 | 1.11 | 0.302 | 0.847 | 0.977 | 0.941 | 1 | 0.991 | 0.891
3 | RERF-LC-KJ | 0.743 | 0.749 | 0.749 | 0.604 | 0.605 | 0.87 | 0.691 | 1.06 | 1.07 | 0.622 | 0.596 | 0.586 | 0.565 | 0.36 | 0.567 | 0.835 | 0.958 | 0.919 | 0.901 | 0.82
4 | SK-LU-1 | 0.804 | 0.818 | 0.768 | 0.815 | 0.585 | 0.72 | 0.554 | 0.959 |  | 0.777 | 0.4 | 0.32 | 0.309 | 0.362 | 0.323 | 1.02 | 0.89 | 0.971 |  | 0.928
5 | SK-MES-1 | 1.09 | 1.15 | 1.26 | 1.24 | 1.03 | 1.15 | 1.18 | 1.32 | 1.25 | 1.39 | 0.668 | 0.674 | 0.606 | 0.348 | 0.509 | 1.07 | 0.895 | 1.06 | 1.07 | 0.957
6 | SW 1573 | 0.736 | 0.732 | 0.779 | 0.454 | 0.792 | 0.771 | 0.933 | 1.02 | 0.937 | 0.803 | 0.675 | 0.618 | 0.583 | 0.216 | 0.607 | 0.732 | 0.714 | 0.893 | 0.721 | 0.782
